“And” between values parts separate entries of the source, which are not always exact repeats. Identical values can stand only once.
Tested on: not listed separately
Assay: Log P, n-octanol/water partition coefficient, HPLC
Assay type: physicochemical
Procedure: The sample compounds tested in the log P experiments included enriched tannic acid (prepared by the enrichment method 10 of U.S. Ser. No. 10/105,378), compounds 21, 24, 27, 46, and 56. First, n-Octanol and water was saturated with each other to achieve partition equilibrium and the two phases were separated for further use. Sample compounds were dissolved in water and n-octanol phase, respectively. Both phases were mixed by vertical rotation movement. After the water and n-octal phases reached equilibrium state, both phases were analyzed to determine the concentrations of the sample compounds for the determination of log P values. All samples were performed in a Shimadzu CBM-20A FfPLC system. The chromatographic separation was carried out on a 5 μm, Kinetex C18 100 Å LC column (100×4.6 mm). The mobile phase was 0.1% formic acid in water and acetonitrile/Methanol set as gradient. Flow rate used was 1.2 mL/min. Column was at room temperature 20±5° C.
The partition coefficient abbreviated P is calculated based on the concentration in n-octanol divided by the concentration in water. The formula of log P is shown below: […]
A logP of 2.02 was found for `O=C(Oc1ccccc1)c1cc(O)c(O)c(OC(=O)c2cc(O)c(O)c(OC(=O)c3cc(O)c(O)c(OC(=O)c4cc(O)c(O)c(OC(=O)c5cc(O)c(O)c(O)c5)c4)c3)c2)c1` [Compound 46, 5-((5-((5-((2,3-dihydroxy-5-(phenoxycarbonyl)phenoxy)carbonyl)-2,3-dihydroxyphenoxy)carbonyl)-2,3-dihydroxyphenoxy)carbonyl)-2,3-dihydroxyphenyl 3,4,5-trihydroxybenzoate] in this work. A logP of 1.32 was found for `O=C(OC[C@H]1O[C@H](OC(=O)c2cc(O)c(O)c(OC(=O)c3cc(O)c(O)c(O)c3)c2)[C@H](OC(=O)c2cc(O)c(O)c(OC(=O)c3cc(O)c(O)c(O)c3)c2)[C@@H](OC(=O)c2cc(O)c(O)c(OC(=O)c3cc(O)c(O)c(O)c3)c2)[C@@H]1OC(=O)c1cc(O)c(O)c(OC(=O)c2cc(O)c(O)c(O)c2)c1)c1cc(O)c(O)c(OC(=O)c2cc(O)c(O)c(O)c2)c1` [Compound 21, (2R,3R,4S,5R,6R)-6-(((3,4-dihydroxy-5-((3,4,5-trihydroxybenzoyl)oxy)benzoyl)oxy)methyl)tetrahydro-2H-pyran-2,3,4,5-tetrayl tetrakis(3,4-dihydroxy-5-((3,4,5-trihydroxybenzoyl)oxy)benzoate)] in this work.

Biological target: human D-amino acid oxidase (hDAAO) (Homo sapiens, UniProt P14920)
Sequence (P14920 whole entry): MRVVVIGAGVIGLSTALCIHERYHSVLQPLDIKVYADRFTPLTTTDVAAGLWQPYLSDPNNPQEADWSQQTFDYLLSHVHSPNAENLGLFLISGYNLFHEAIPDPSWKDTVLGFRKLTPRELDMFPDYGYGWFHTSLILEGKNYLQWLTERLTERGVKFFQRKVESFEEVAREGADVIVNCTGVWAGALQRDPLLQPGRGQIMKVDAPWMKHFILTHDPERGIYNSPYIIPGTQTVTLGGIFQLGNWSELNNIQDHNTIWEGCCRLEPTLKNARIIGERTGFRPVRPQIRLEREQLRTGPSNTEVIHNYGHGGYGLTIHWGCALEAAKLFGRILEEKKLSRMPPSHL
Assay: In vitro measurement of human D-amino acid oxidase (hDAAO) activity, D-Serine substrate, Amplex Red fluorescence
Assay type: biochemical
With `O=C(Oc1cccc(OC(=O)c2cc(O)c(O)c(OC(=O)c3cc(O)c(O)c(OC(=O)c4cc(O)c(O)c(OC(=O)c5cc(O)c(O)c(OC(=O)c6cc(O)c(O)c(O)c6)c5)c4)c3)c2)c1)c1cc(O)c(O)c(OC(=O)c2cc(O)c(O)c(OC(=O)c3cc(O)c(O)c(OC(=O)c4cc(O)c(O)c(OC(=O)c5cc(O)c(O)c(O)c5)c4)c3)c2)c1` [Compound 51, 1,3-phenylene bis(3-((3-((3-((3,4-dihydroxy-5-((3,4,5-trihydroxybenzoyl)oxy)benzoyl)oxy)-4,5-dihydroxybenzoyl)oxy)-4,5-dihydroxybenzoyl)oxy)-4,5-dihydroxybenzoate)] the IC50 was 8.58 nM and 9 nM. In the case of `O=C(OCC1OC(OC(=O)c2cc(O)c(O)c(OC(=O)c3cc(O)c(O)c(O)c3)c2)C(OC(=O)c2cc(O)c(O)c(OC(=O)c3cc(O)c(O)c(O)c3)c2)C(OC(=O)c2cc(O)c(O)c(OC(=O)c3cc(O)c(O)c(O)c3)c2)C1OC(=O)c1cc(O)c(O)c(OC(=O)c2cc(O)c(O)c(O)c2)c1)c1cc(O)c(O)c(OC(=O)c2cc(O)c(O)c(O)c2)c1` (stereo not drawn) [Compound 103], the IC50 is reported as 19.4 nM and 20 nM. For `O=C(Oc1ccccc1)c1cc(O)c(O)c(OC(=O)c2cc(O)c(O)c(OC(=O)c3cc(O)c(O)c(OC(=O)c4cc(O)c(O)c(OC(=O)c5cc(O)c(O)c(O)c5)c4)c3)c2)c1` [Compound 46, 5-((5-((5-((2,3-dihydroxy-5-(phenoxycarbonyl)phenoxy)carbonyl)-2,3-dihydroxyphenoxy)carbonyl)-2,3-dihydroxyphenoxy)carbonyl)-2,3-dihydroxyphenyl 3,4,5-trihydroxybenzoate], the IC50 was 24.6 nM and 24 nM. In the case of `O=C(OC[C@H]1O[C@H](OC(=O)c2cc(O)c(O)c(OC(=O)c3cc(O)c(O)c(O)c3)c2)[C@H](OC(=O)c2cc(O)c(O)c(OC(=O)c3cc(O)c(O)c(O)c3)c2)[C@@H](OC(=O)c2cc(O)c(O)c(OC(=O)c3cc(O)c(O)c(O)c3)c2)[C@@H]1OC(=O)c1cc(O)c(O)c(OC(=O)c2cc(O)c(O)c(O)c2)c1)c1cc(O)c(O)c(OC(=O)c2cc(O)c(O)c(O)c2)c1` [Compound 21, (2R,3R,4S,5R,6R)-6-(((3,4-dihydroxy-5-((3,4,5-trihydroxybenzoyl)oxy)benzoyl)oxy)methyl)tetrahydro-2H-pyran-2,3,4,5-tetrayl tetrakis(3,4-dihydroxy-5-((3,4,5-trihydroxybenzoyl)oxy)benzoate)], the IC50 is reported as 19.4 nM and 20 nM. In the case of `O=C(OC[C@H]1O[C@@H](OC(=O)c2cc(O)c(O)c(OC(=O)c3cc(O)c(O)c(OC(=O)c4cc(O)c(O)c(O)c4)c3)c2)[C@H](OC(=O)c2cc(O)c(O)c(OC(=O)c3cc(O)c(O)c(OC(=O)c4cc(O)c(O)c(O)c4)c3)c2)[C@@H](OC(=O)c2cc(O)c(O)c(OC(=O)c3cc(O)c(O)c(OC(=O)c4cc(O)c(O)c(O)c4)c3)c2)[C@@H]1OC(=O)c1cc(O)c(O)c(OC(=O)c2cc(O)c(O)c(OC(=O)c3cc(O)c(O)c(O)c3)c2)c1)c1cc(O)c(O)c(OC(=O)c2cc(O)c(O)c(OC(=O)c3cc(O)c(O)c(O)c3)c2)c1` [Compound 37, (2S,3R,4S,5R,6R)-6-(((3-((3,4-dihydroxy-5-((3,4,5-trihydroxybenzoyl)oxy)benzoyl)oxy)-4,5-dihydroxybenzoyl)oxy)methyl)tetrahydro-2H-pyran-2,3,4,5-tetrayl tetrakis(3-((3,4-dihydroxy-5-((3,4,5-trihydroxybenzoyl)oxy)benzoyl)oxy)-4,5-dihydroxybenzoate)], the IC50 is reported as 11.8 nM and 12 nM. In the case of `O=C(Oc1ccccc1)c1cc(O)c(O)c(OC(=O)c2cc(O)c(O)c(OC(=O)c3cc(O)c(O)c(OC(=O)c4cc(O)c(O)c(OC(=O)c5cc(O)c(O)c(OC(=O)c6cc(O)c(O)c(OC(=O)c7cc(O)c(O)c(O)c7)c6)c5)c4)c3)c2)c1` [Compound 48, 5-((5-((5-((5-((5-((2,3-dihydroxy-5-(phenoxycarbonyl)phenoxy)carbonyl)-2,3-dihydroxyphenoxy)carbonyl)-2,3-dihydroxyphenoxy)carbonyl)-2,3-dihydroxyphenoxy)carbonyl)-2,3-dihydroxyphenoxy)carbonyl)-2,3-dihydroxyphenyl 3,4,5-trihydroxybenzoate], the IC50 is reported as 17.3 nM and 17 nM. In the case of `O=C(Oc1cccc(OC(=O)c2cc(O)c(O)c(OC(=O)c3cc(O)c(O)c(OC(=O)c4cc(O)c(O)c(OC(=O)c5cc(O)c(O)c(OC(=O)c6cc(O)c(O)c(OC(=O)c7cc(O)c(O)c(OC(=O)c8cc(O)c(O)c(O)c8)c7)c6)c5)c4)c3)c2)c1)c1cc(O)c(O)c(OC(=O)c2cc(O)c(O)c(OC(=O)c3cc(O)c(O)c(OC(=O)c4cc(O)c(O)c(OC(=O)c5cc(O)c(O)c(OC(=O)c6cc(O)c(O)c(OC(=O)c7cc(O)c(O)c(O)c7)c6)c5)c4)c3)c2)c1` [Compound 53, 1,3-phenylene bis(3-((3-((3-((3-((3-((3,4-dihydroxy-5-((3,4,5-trihydroxybenzoyl)oxy)benzoyl)oxy)-4,5-dihydroxybenzoyl)oxy)-4,5-dihydroxybenzoyl)oxy)-4,5-dihydroxybenzoyl)oxy)-4,5-dihydroxybenzoyl)oxy)-4,5-dihydroxybenzoate)], the IC50 is reported as 5.8 nM and 6 nM. For `O=C(Oc1cc(OC(=O)c2cc(O)c(O)c(OC(=O)c3cc(O)c(O)c(OC(=O)c4cc(O)c(O)c(OC(=O)c5cc(O)c(O)c(OC(=O)c6cc(O)c(O)c(OC(=O)c7cc(O)c(O)c(OC(=O)c8cc(O)c(O)c(O)c8)c7)c6)c5)c4)c3)c2)cc(OC(=O)c2cc(O)c(O)c(OC(=O)c3cc(O)c(O)c(OC(=O)c4cc(O)c(O)c(OC(=O)c5cc(O)c(O)c(OC(=O)c6cc(O)c(O)c(OC(=O)c7cc(O)c(O)c(OC(=O)c8cc(O)c(O)c(O)c8)c7)c6)c5)c4)c3)c2)c1)c1cc(O)c(O)c(OC(=O)c2cc(O)c(O)c(OC(=O)c3cc(O)c(O)c(OC(=O)c4cc(O)c(O)c(OC(=O)c5cc(O)c(O)c(OC(=O)c6cc(O)c(O)c(OC(=O)c7cc(O)c(O)c(O)c7)c6)c5)c4)c3)c2)c1` [Compound 58, benzene-1,3,5-triyl tris(3-((3-((3-((3-((3-((3,4-dihydroxy-5-((3,4,5-trihydroxybenzoyl)oxy)benzoyl)oxy)-4,5-dihydroxybenzoyl)oxy)-4,5-dihydroxybenzoyl)oxy)-4,5-dihydroxybenzoyl)oxy)-4,5-dihydroxybenzoyl)oxy)-4,5-dihydroxybenzoate)], the IC50 was 2.71 nM and 3 nM. With `O=C(OC[C@H]1O[C@H](OC(=O)c2cc(O)c(O)c(O)c2)[C@H](OC(=O)c2cc(O)c(O)c(O)c2)[C@@H](OC(=O)c2cc(O)c(O)c(O)c2)[C@@H]1OC(=O)c1cc(O)c(O)c(O)c1)c1cc(O)c(O)c(O)c1` [Compound 101] the IC50 was 53.2 nM and 51 nM. In the case of `O=C(OC[C@H]1O[C@@H](OC(=O)c2cc(O)c(O)c(O)c2)[C@H](OC(=O)c2cc(O)c(O)c(O)c2)[C@@H](OC(=O)c2cc(O)c(O)c(O)c2)[C@@H]1OC(=O)c1cc(O)c(O)c(O)c1)c1cc(O)c(O)c(O)c1` [Compound 102], the IC50 is reported as 54.2 nM and 53 nM.

Reference: patent US20210214385A1, “INHIBITORS OF D-AMINO ACID OXIDASE AND USES THEREOF” (SyneuRx International (Taiwan) Corp., priority 2018, published 2021)
